Read-outs that look alike come from different tables or passages of the source.
Target: T1, ZAP-70 (Homo sapiens, UniProt P43403)
T1 sequence (P43403 1-619): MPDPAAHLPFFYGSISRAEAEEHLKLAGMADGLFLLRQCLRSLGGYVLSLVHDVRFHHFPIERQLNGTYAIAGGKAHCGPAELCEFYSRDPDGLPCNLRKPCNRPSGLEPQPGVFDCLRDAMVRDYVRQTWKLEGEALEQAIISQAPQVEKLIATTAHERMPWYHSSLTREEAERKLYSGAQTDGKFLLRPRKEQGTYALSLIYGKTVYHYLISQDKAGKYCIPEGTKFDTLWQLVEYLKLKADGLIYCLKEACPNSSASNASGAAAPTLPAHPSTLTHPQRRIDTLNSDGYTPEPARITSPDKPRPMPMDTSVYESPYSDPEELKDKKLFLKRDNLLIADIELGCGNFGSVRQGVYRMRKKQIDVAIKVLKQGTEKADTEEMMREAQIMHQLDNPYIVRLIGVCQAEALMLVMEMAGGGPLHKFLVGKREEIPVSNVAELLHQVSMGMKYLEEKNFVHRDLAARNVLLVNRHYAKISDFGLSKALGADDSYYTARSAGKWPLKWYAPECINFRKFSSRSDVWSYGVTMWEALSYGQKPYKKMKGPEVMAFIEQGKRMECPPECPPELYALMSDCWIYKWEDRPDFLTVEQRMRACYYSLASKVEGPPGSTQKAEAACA
Assay: DELFIA assay (ZAP-70 kinase, phosphorylation of biotinylated poly(glu,tyr))
Type: biochemical
Conditions: ZAP-70 DELFIA, read-out: Activity (IC50 in vitro)
Summary of the method: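 3.1 nM ZAP-70 pre-incubated 10 min at room temperature with compound ([…]) and 62.5 nM biotinylated poly(glu,tyr) in 62.5 mM Mops pH 7.0, 12.5 mM MgCl2, 12.5% glycerol, 6.25% DMSO (pre-incubation concentrations); ATP added from 5 mM stock, 30 min reaction, EDTA stop. Phosphorylation read by DELFIA europium anti-phosphotyrosine fluorescence (340/615).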

SMILES	IC50 (class symbols) [µM]	IC50 (numeric value) [µM]
CC(=O)c1ccc(-c2ccc3nc(NCc4ccc(C(F)(F)F)cc4)cc(C(=O)N4CCC[C@H]4CN4CCCC4)c3c2)s1 [Compound 299]	< 1	–
O=C(c1cc(NCc2ccc(C(F)(F)F)cc2)nc2ccc(-c3csc4ccccc34)cc12)N1CCC[C@H]1CN1CCCC1 [Compound 300]	< 1	–
Cc1ccc(-c2ccc3nc(NCc4ccc(C(F)(F)F)cc4)cc(C(=O)N4CCC[C@H]4CN4CCCC4)c3c2)s1 [Compound 301]	–	1.78
O=C(c1cc(NCc2ccc(C(F)(F)F)cc2)nc2ccc(-c3ccc(F)c(Cl)c3)cc12)N1CCC[C@H]1CN1CCCC1 [Compound 303]	< 1	–
O=C(c1cc(NCc2ccc(C(F)(F)F)cc2)nc2ccc(-c3cccc(F)c3)cc12)N1CCC[C@H]1CN1CCCC1 [Compound 304]	1 to 10	–
O=C(c1cc(NCc2ccc(C(F)(F)F)cc2)nc2ccc(-c3ccc(Cl)cc3)cc12)N1CCC[C@H]1CN1CCCC1 [Compound 305]	< 1	–
O=C(c1cc(NCc2ccc(C(F)(F)F)cc2)nc2ccc(-c3cccc(Cl)c3)cc12)N1CCC[C@H]1CN1CCCC1 [Compound 306]	< 1	–
O=C(c1cc(NCc2ccc(C(F)(F)F)cc2)nc2ccc(-c3ccc(F)cc3F)cc12)N1CCC[C@H]1CN1CCCC1 [Compound 307]	1 to 10	–
O=C(c1cc(NCc2ccc(C(F)(F)F)cc2)nc2ccc(-c3ccc(OC(F)(F)F)cc3)cc12)N1CCC[C@H]1CN1CCCC1 [Compound 309]	1 to 10	–
O=C(c1cc(NCc2ccc(C(F)(F)F)cc2)nc2ccc(-c3cccc(OC(F)(F)F)c3)cc12)N1CCC[C@H]1CN1CCCC1 [Compound 310]	< 1	–
CS(=O)(=O)c1ccc(CNc2cc(C(=O)N3CCC[C@H]3CN3CCCC3)c3cc(-c4ccc(C#N)cc4)ccc3n2)cc1 [Compound 311]	1 to 10	–
N#Cc1ccc(-c2ccc3nc(NCc4c(F)cccc4F)cc(C(=O)N4CCC[C@H]4CN4CCCC4)c3c2)cc1 [Compound 312]	1 to 10	–
COc1ccccc1CCNc1cc(C(=O)N2CCC[C@H]2CN2CCCC2)c2cc(-c3ccc(C#N)cc3)ccc2n1 [Compound 313]	1 to 10	–
N#Cc1ccc(-c2ccc3nc(N[C@H](CO)Cc4ccccc4)cc(C(=O)N4CCC[C@H]4CN4CCCC4)c3c2)cc1 [Compound 316]	1 to 10	–
N#Cc1ccc(-c2ccc3nc(NCc4cccc(O)c4)cc(C(=O)N4CCC[C@H]4CN4CCCC4)c3c2)cc1 [Compound 321]	1 to 10	–
O=C(c1cc(Sc2ccc(OC(F)(F)F)cc2)nc2ccc(-c3ccc4c(c3)OCO4)cc12)N1CCC[C@H]1CN1CCCC1 [Compound 325]	< 1	–
O=C(c1cc(SCc2ccc(Cl)cc2)nc2ccc(-c3ccc4c(c3)OCO4)cc12)N1CCC[C@H]1CN1CCCC1 [Compound 326]	< 1	–
COC[C@H]1CCCN1c1cc(C(=O)N2CCC[C@H]2CN2CCCC2)c2cc(-c3ccc4c(c3)OCO4)ccc2n1 [Compound 328]	1 to 10	–
COC[C@@H]1CCCN1c1cc(C(=O)N2CCC[C@H]2CN2CCCC2)c2cc(-c3ccc4c(c3)OCO4)ccc2n1 [Compound 329]	> 10	–
C[C@@H](Nc1cc(C(=O)N2CCC[C@H]2CN2CCCC2)c2cc(-c3ccc4c(c3)OCO4)ccc2n1)c1ccc(Cl)cc1 [Compound 330]	< 1	–
C[C@H](Nc1cc(C(=O)N2CCC[C@H]2CN2CCCC2)c2cc(-c3ccc4c(c3)OCO4)ccc2n1)c1ccc(Cl)cc1 [Compound 331]	< 1	–
O=C(c1cc(NCc2ccc(C(F)(F)F)cc2)nc2ccc(-c3nc(Cl)ns3)cc12)N1CCC[C@H]1CN1CCCC1 [Compound 341]	> 10	–
O=C(c1cc(NCc2ccc(C(F)(F)F)cc2)nc2ccc(-c3ccc(F)c(F)c3)cc12)N1CCC[C@H]1CN1CCCC1 [Compound 344]	< 1	–
O=C(c1cc(NCc2ccc(C(F)(F)F)cc2)nc2ccc(-c3ccc(C(F)(F)F)cc3)cc12)N1CCC[C@H]1CN1CCCC1 [Compound 345]	> 10	–
O=C(c1cc(NCc2ccc(C(F)(F)F)cc2)nc2ccc(-c3cccc(Cl)c3Cl)cc12)N1CCC[C@H]1CN1CCCC1 [Compound 346]	> 10	–
O=C(c1cc(NCc2ccc(C(F)(F)F)cc2)nc2ccc(-c3ccccc3Cl)cc12)N1CCC[C@H]1CN1CCCC1 [Compound 347]	> 10	–
O=C(c1cc(NCc2ccc(C(F)(F)F)cc2)nc2ccc(-c3ccc4occc4c3)cc12)N1CCC[C@H]1CN1CCCC1 [Compound 349]	< 1	–
O=C(c1cc(NCc2ccc(C(F)(F)F)cc2)nc2ccc(-c3ccc(SC(F)(F)F)cc3)cc12)N1CCC[C@H]1CN1CCCC1 [Compound 350]	> 10	–
Cc1c(-c2ccc3nc(NCc4ccc(C(F)(F)F)cc4)cc(C(=O)N4CCC[C@H]4CN4CCCC4)c3c2)sc2ccc(Cl)cc12 [Compound 353]	> 10	–
O=C(c1cc(NCc2ccc(C(F)(F)F)cc2)nc2ccc(I)cc12)N1CCC[C@H]1CN1CCCC1 [Compound 356]	> 10	–

Other lines, results leading:

IC50 (class symbols) [µM]	IC50 (numeric value) [µM]	SMILES
< 1	–	O=C(c1cc(NCc2ccc(C(F)(F)F)cc2)nc2ccc(-c3ccc(F)cc3)cc12)N1CCC[C@H]1CN1CCCC1 [Compound 302]
1 to 10	–	O=C(c1cc(NCc2ccc(C(F)(F)F)cc2)nc2ccc(-c3ccccc3F)cc12)N1CCC[C@H]1CN1CCCC1 [Compound 308]
< 1	–	N#Cc1ccc(-c2ccc3nc(NC(CO)Cc4ccccc4)cc(C(=O)N4CCC[C@H]4CN4CCCC4)c3c2)cc1 (some centres unmarked) [Compound 315]
< 1	–	C[C@H](Nc1cc(C(=O)N2CCC[C@H]2CN2CCCC2)c2cc(-c3ccc(C#N)cc3)ccc2n1)[C@H](O)c1ccccc1 [Compound 317]
1 to 10	–	N#Cc1ccc(-c2ccc3nc(NCc4ccc5c(c4)CCO5)cc(C(=O)N4CCC[C@H]4CN4CCCC4)c3c2)cc1 [Compound 318]
< 1	–	N#Cc1ccc(-c2ccc3nc(NCc4cccc(OC(F)F)c4)cc(C(=O)N4CCC[C@H]4CN4CCCC4)c3c2)cc1 [Compound 319]
1 to 10	–	N#Cc1ccc(-c2ccc3nc(NCCc4cccc(O)c4)cc(C(=O)N4CCC[C@H]4CN4CCCC4)c3c2)cc1 [Compound 320]
> 10	–	O=C(c1cc(Sc2ccc(C(F)(F)F)cc2)nc2ccc(-c3ccc4c(c3)OCO4)cc12)N1CCC[C@H]1CN1CCCC1 [Compound 323]
< 1	–	O=C(c1cc(Sc2cccc(C(F)(F)F)c2)nc2ccc(-c3ccc4c(c3)OCO4)cc12)N1CCC[C@H]1CN1CCCC1 [Compound 324]
> 10	–	O=C(c1cc(N2CCC[C@H]2CO)nc2ccc(-c3ccc4c(c3)OCO4)cc12)N1CCC[C@H]1CN1CCCC1 [Compound 327]
> 10	–	O=C(c1cc(NCc2ccc(C(F)(F)F)cc2)nc2ccc(-c3cncnc3)cc12)N1CCC[C@H]1CN1CCCC1 [Compound 332]
> 10	–	O=C(c1cc(NCc2ccc(C(F)(F)F)cc2)nc2ccc(-c3ccccn3)cc12)N1CCC[C@H]1CN1CCCC1 [Compound 333]
> 10	–	O=C(c1cc(NCc2ccc(C(F)(F)F)cc2)nc2ccc(-c3cccnc3)cc12)N1CCC[C@H]1CN1CCCC1 [Compound 334]
> 10	–	O=C(c1cc(NCc2ccc(C(F)(F)F)cc2)nc2ccc(-c3cncc4ccccc34)cc12)N1CCC[C@H]1CN1CCCC1 [Compound 335]
> 10	–	O=C(c1cc(NCc2ccc(C(F)(F)F)cc2)nc2ccc(-c3ncccn3)cc12)N1CCC[C@H]1CN1CCCC1 [Compound 336]
> 10	–	Cc1ccsc1-c1ccc2nc(NCc3ccc(C(F)(F)F)cc3)cc(C(=O)N3CCC[C@H]3CN3CCCC3)c2c1 [Compound 337]
> 10	–	Cc1noc(C)c1-c1ccc2nc(NCc3ccc(C(F)(F)F)cc3)cc(C(=O)N3CCC[C@H]3CN3CCCC3)c2c1 [Compound 338]
> 10	–	N#Cc1cncc(-c2ccc3nc(NCc4ccc(C(F)(F)F)cc4)cc(C(=O)N4CCC[C@H]4CN4CCCC4)c3c2)c1 [Compound 339]
> 10	–	Cn1ccnc1-c1ccc2nc(NCc3ccc(C(F)(F)F)cc3)cc(C(=O)N3CCC[C@H]3CN3CCCC3)c2c1 [Compound 340]
> 10	–	Cn1cncc1-c1ccc2nc(NCc3ccc(C(F)(F)F)cc3)cc(C(=O)N3CCC[C@H]3CN3CCCC3)c2c1 [Compound 342]
> 10	–	N#Cc1ncccc1-c1ccc2nc(NCc3ccc(C(F)(F)F)cc3)cc(C(=O)N3CCC[C@H]3CN3CCCC3)c2c1 [Compound 343]
< 1	–	O=C(c1cc(NCc2ccc(C(F)(F)F)cc2)nc2ccc(-c3ccc4c(c3)OC(F)(F)O4)cc12)N1CCC[C@H]1CN1CCCC1 [Compound 348]
< 1	–	N#Cc1csc2ccc(-c3ccc4nc(NCc5ccc(C(F)(F)F)cc5)cc(C(=O)N5CCC[C@H]5CN5CCCC5)c4c3)cc12 [Compound 351]
< 1	–	O=C(c1cc(NCc2ccc(C(F)(F)F)cc2)nc2ccc(-c3ccc4ncsc4c3)cc12)N1CCC[C@H]1CN1CCCC1 [Compound 352]
> 10	–	O=C(c1cc(NCc2ccc(C(F)(F)F)cc2)nc2ccc(-c3nc4ccccc4[nH]3)cc12)N1CCC[C@H]1CN1CCCC1 [Compound 354]
> 10	–	O=C(c1cc(NCc2ccc(C(F)(F)F)cc2)nc2ccc(-c3ccc(-c4cnco4)s3)cc12)N1CCC[C@H]1CN1CCCC1 [Compound 355]
